Results on 15 compounds are retold here after patent US20250179027A1, “CYCLOALKYL OR HETEROCYCLYL SUBSTITUTED HETEROARYL COMPOUND, AND COMPOSITION AND USE THEREOF” (Shenzhen TargetRx, Inc., priority 2022, published 2025).

This assay has as its target T1, phosphorylated BTK Y223 in NIH/3T3 BTK C481S cells (Homo sapiens, UniProt Q06187, C481S).
T1 construct: expressed in transfected cells; host or cells: NIH/3T3 (mouse fibroblasts) engineered to express BTK C481S
In words: Phosphor-BTK(Y223) assay, NIH/3T3 BTK C481S cells. In kind it is cell-based. The settings on record: phosphorylated BTK Y223, NIH/3T3 BTK C481S cells; read-out: NIH/3T3 BTK-C481S pBTK IC50. Here is the method: The purpose of this assay is to simply, quickly and directly detect the endogenous level of BTK in cells. The specific assay steps are as follows: Day 1: NIH/3T3 BTK WT cells (7.5 k/well) and NIH/3T3 BTK C481S cells (10 k/well) were plated in 96-well plates, respectively, and cultured overnight at 37° C. and 5% CO2.
• 1. A 3-fold final concentration gradient dilution of the compound was prepared, and 50 μL was added to 100 μL of cell culture; 0.5% DMSO was used as a positive control for cell growth. • 2. The plate was incubated at 37° C., 5% CO2 for 0.5 h. • 3. Na3VO4 with a final concentration of 1 mM was added, and incubated at 37° C. and 5% CO2 for 2 hours. • 4. During the incubation, the following reagents were prepared: 1× added lysis buffer: 3 vol ddH2O+1 vol 4× lysis buffer+100× blocking reagent. p-BTK (Y223) cryptate-antibody and p-BTK (Y223) d2-antibody working solutions: 1 volume of each cryopreserved antibody (stored at −20° C.) was added to 19 times volumes of assay buffer (stored at 4° C.). • 5. After the incubation, the medium was removed and 50 μL of 1× added lysis buffer was added; The mixture was centrifuged at 500 rpm for 30 min at room temperature. • 6. The lysate was mixed well and 16 μL was transferred to a 384-well plate; 1× added lysis buffer was used as a blank control. • 7. 4 μL of pre-mixed working solutions of the two antibodies (cryptate Ab:d2 Ab=1:1) were added and the plate was sealed. • 8. The plate was incubated overnight at room temperature.
Biotek cytation3.0 microplate reader was used to read the plate at 665 nm and 620 nm, and the ratio of 665/620 nm per well was calculated.
IC50 was calculated using GraphPad Prism 7.0 software.
The following nonlinear fitting formula was used to obtain the phosphorylated BTK Y223 IC50 (half phosphorylation inhibitory concentration) of the compounds:
[formula] • X: Compound concentration log value • Y: Inhibition rate (% inhibition)
The formula for calculating cell phosphorylation inhibition rate (% inhibition rate) was: […]

T1 sequence (Q06187 whole entry C481S): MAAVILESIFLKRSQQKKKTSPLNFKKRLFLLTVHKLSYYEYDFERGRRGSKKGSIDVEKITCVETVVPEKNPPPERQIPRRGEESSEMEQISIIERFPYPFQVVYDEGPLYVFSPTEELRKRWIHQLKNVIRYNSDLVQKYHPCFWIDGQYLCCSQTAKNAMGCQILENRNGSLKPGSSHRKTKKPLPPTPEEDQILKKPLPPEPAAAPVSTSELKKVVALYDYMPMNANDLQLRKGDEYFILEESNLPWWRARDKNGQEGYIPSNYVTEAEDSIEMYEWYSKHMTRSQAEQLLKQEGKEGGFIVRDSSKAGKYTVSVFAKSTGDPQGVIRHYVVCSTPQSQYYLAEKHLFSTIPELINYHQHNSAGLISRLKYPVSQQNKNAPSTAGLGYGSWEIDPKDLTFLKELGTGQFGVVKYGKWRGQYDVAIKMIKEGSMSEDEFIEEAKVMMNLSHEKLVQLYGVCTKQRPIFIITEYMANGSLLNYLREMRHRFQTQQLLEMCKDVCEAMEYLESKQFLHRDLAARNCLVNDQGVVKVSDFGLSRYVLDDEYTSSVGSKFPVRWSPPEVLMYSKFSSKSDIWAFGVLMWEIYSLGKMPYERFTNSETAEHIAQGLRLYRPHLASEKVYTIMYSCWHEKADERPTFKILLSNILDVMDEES

Regarding `COc1ccc(F)cc1C(=O)NCc1ccc(-c2nn(C3CCCC(O)C3)c3ncnc(N)c23)cc1` (single isomer, unassigned) [Example 7], the IC50 was in the range of 25 to 50 nM.

Take `COc1ccc(F)cc1C(=O)NCc1ccc(-c2nn(C3CCCC(O)C3)c3ncnc(N)c23)cc1` (single isomer, unassigned) [Example 5]: the IC50 is at most 25 nM. The value for `COc1ccc(F)cc1C(=O)NCc1ccc(-c2nn([C@H]3CC[C@H](CO)CC3)c3ncnc(N)c23)cc1` [Example 56, trans-N-(4-(4-amino-1-((1R,4R)-4-(hydroxymethyl)cyclohexyl)-1H-pyrazolo[3,4-d]pyrimidin-3-yl)benzyl)-5-fluoro-2-methoxybenzamide] was at most 25 nM. The figure for `COc1ccc(F)cc1C(=O)NCc1ccc(-c2nn(C3CCC(CO)OC3)c3ncnc(N)c23)cc1` (single isomer, unassigned) [Example 18, N-(4-(4-amino-1-(6-(hydroxymethyl)tetrahydro-2H-pyran-3-yl)-1H-pyrazolo[3,4-d]pyrimidin-3-yl)benzyl)-5-fluoro-2-methoxybenzamide] is at most 25 nM; for `COc1ccc(F)cc1C(=O)NCc1ccc(-c2nn(C3CCC(O)CC3)c3ncnc(N)c23)cc1` [Example 29, N-(4-(4-amino-1-((1R,4R)-4-hydroxycyclohexyl)-1H-pyrazolo[3,4-d]pyrimidin-3-yl)benzyl)-5-fluoro-2-methoxybenzamide] it is at most 25 nM. The value for `COc1ccc(F)cc1C(=O)NCc1ccc(-c2nn(C3CCC(O)C3)c3ncnc(N)c23)cc1` (single isomer, unassigned) [Example 31, N-(4-(4-amino-1-(3-hydroxycyclopentanyl)-1H-pyrazolo[3,4-d]pyrimidin-3-yl)benzyl)-5-fluoro-2-methoxybenzamide] was at most 25 nM. Take `COc1ccc(F)cc1C(=O)NCc1ccc(-c2nn(C3CCCC(O)C3)c3ncnc(N)c23)cc1` (single isomer, unassigned) [Example 8]: the IC50 fell in the range of 50 to 100 nM. The value for `COc1ccc(F)cc1C(=O)NCc1ccc(-c2nn([C@H]3CC[C@@H](O)CC3)c3ncnc(N)c23)cc1` [Example 30, N-(4-(4-amino-1-((1S,4S)-4-hydroxycyclohexyl)-1H-pyrazolo[3,4-d]pyrimidin-3-yl)benzyl)-5-fluoro-2-methoxybenzamide] was at most 25 nM; that for `COc1ccc(F)cc1C(=O)NCc1ccc(-c2nc(C3CCCC(O)C3)n3ccnc(N)c23)cc1` (stereo not drawn) [Example 20, N-(4-(8-amino-3-(3-hydroxycyclohexanyl)imidazo[1,5-a]pyrazin-1-yl)benzyl)-5-fluoro-2-methoxybenzamide] was at most 25 nM. The figure for `COc1ccc(F)cc1C(=O)NCc1ccc(-c2nn([C@H]3CC[C@@H](CO)CC3)c3ncnc(N)c23)cc1` [Example 55, cis-N-(4-(4-amino-1-((1S,4S)-4-(hydroxymethyl)cyclohexyl)-1H-pyrazolo[3,4-d]pyrimidin-3-yl)benzyl)-5-fluoro-2-methoxybenzamide] is at most 25 nM. The value for `COc1ccc(F)cc1C(=O)NCc1ccc(-c2cc(C3CCC(CO)OC3)n3ncnc(N)c23)cc1` (single isomer, unassigned) [Example 59, N-(4-(4-amino-7-(6-(hydroxymethyl)tetrahydro-2H-pyran-3-yl)pyrrolo[2,1-f][1,2,4]triazin-5-yl)benzyl)-5-fluoro-2-methoxybenzamide] was 50 to 100 nM; that for `COc1ccc(F)cc1C(=O)NCc1ccc(-c2nc(C3CCCC(O)C3)n3ccnc(N)c23)cc1` (single isomer, unassigned) [Example 22, N-(4-(8-amino-3-(3-hydroxycyclohexanyl)imidazo[1,5-a]pyrazin-1-yl)benzyl)-5-fluoro-2-methoxybenzamide] was at most 25 nM; that for `COc1ccc(F)cc1C(=O)NCc1ccc(-c2cc(C3CCC(CO)OC3)n3ncnc(N)c23)cc1` (single isomer, unassigned) [Example 60, N-(4-(4-amino-7-(6-(hydroxymethyl)tetrahydro-2H-pyran-3-yl)pyrrolo[2,1-f][1,2,4]triazin-5-yl)benzyl)-5-fluoro-2-methoxybenzamide] was at most 25 nM. For `COc1ccc(F)cc1C(=O)NCc1ccc(-c2nn(C3CCCC(O)C3)c3ncnc(N)c23)cc1` (single isomer, unassigned) [Example 6], the IC50 was at most 25 nM. On to `COc1ccc(F)cc1C(=O)NCc1ccc(-c2nn(C3CCCC(O)C3)c3ncnc(N)c23)cc1` (stereo not drawn) [Example 4], for which the IC50 is 25 to 50 nM.
